Our source for the IC50 values is patent US8084479B2, “Thiazole compounds and methods of use” (Amgen Inc., priority 2006, dated 2011).

The assay deals with PKBα (Homo sapiens, UniProt P31749). Nature of the assay: PKB kinase assay (P33-labeled ATP, peptide substrate, filter plate). In kind it is biochemical. To be noted: PKBα enzyme (full length or kinase domain with pleckstrin domain deleted). An excerpt: The kinase assay for evaluating PKB activity comprises active PKB enzymes, a PKB specific substrate, and P^33-labeled ATP. […] The phosphorylated substrate was captured by a phosphocellulose membrane filter plate (MLLIPORE) and measured by a Wallac Microbeta liquid scintillation counter (Perkin Elmer).
PKBα, sequence (P31749 118-480 limits assumed): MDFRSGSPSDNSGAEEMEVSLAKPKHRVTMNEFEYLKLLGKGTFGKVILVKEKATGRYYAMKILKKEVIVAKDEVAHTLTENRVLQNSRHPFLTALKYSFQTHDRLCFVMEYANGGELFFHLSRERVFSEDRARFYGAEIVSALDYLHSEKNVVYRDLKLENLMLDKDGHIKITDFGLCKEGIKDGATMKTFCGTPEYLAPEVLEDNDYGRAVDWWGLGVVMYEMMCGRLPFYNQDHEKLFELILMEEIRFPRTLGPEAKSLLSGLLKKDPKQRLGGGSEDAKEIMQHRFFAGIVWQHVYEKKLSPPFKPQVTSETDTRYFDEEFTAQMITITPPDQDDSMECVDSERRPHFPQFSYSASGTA

Bounds are passed on as bounds.

Consider `COCc1nc(N(C[C@H](Cc2ccc(C(F)(F)F)cc2)NCCN2CCOCC2)C(C)=O)sc1-c1nc2ccncc2s1` [Example 33, N-(4-(methoxymethyl)-5-(thiazolo[5,4-c]pyridin-2-yl)thiazol-2-yl)-N—((S)-2-(2-morpholinoethylamino)-3-(4-(trifluoromethyl)phenyl)propyl)acetamide], for which the IC50 is more than 10000 nM. The same measure for `COCc1nc(NC[C@H](Cc2ccc(C(F)(F)F)cc2)NCCN2CCOCC2)sc1-c1nc2ccncc2s1` [Example 34, 4-(Methoxymethyl)-N—((S)-2-(2-morpholinoethylamino)-3-(4-(trifluoromethyl)phenyl)propyl)-5-(thiazolo[5,4-c]pyridin-2-yl)thiazol-2-amine]: 50 to 1000 nM; for `N[C@H](CNc1ncc(-c2ccc3[nH]c(=O)sc3c2)s1)Cc1c[nH]c2ccccc12` [Example 35, 6-(2-((S)-2-amino-3-(1H-indol-3-yl)propylamino)thiazol-5-yl)benzo[d]thiazol-2(3H)-one]: 50 to 1000 nM; for `N[C@H](CNc1ncc(-c2ccc3c(c2)CCC(=O)N3)s1)Cc1ccc(C(F)(F)F)cc1` [Example 36, 6-(2-((S)-2-amino-3-(4-(trifluoromethyl)phenyl)propylamino)thiazol-5-yl)-3,4-dihydroquinolin-2(1H)-one]: 1000 to 10000 nM. Consider `Nc1n[nH]c2ccc(-c3cnc(NC[C@@H](N)Cc4c[nH]c5ccccc45)s3)cc12` [Example 37, 5-(2-((S)-2-amino-3-(1H-indol-3-yl)propylamino)thiazol-5-yl)-1H-indazol-3-amine], for which the IC50 is 1000 to 10000 nM.

Take `Nc1noc2ccc(-c3cnc(NC[C@@H](N)Cc4c[nH]c5ccccc45)s3)cc12` [Example 38, 5-(2-((S)-2-amino-3-(1H-indol-3-yl)propylamino)thiazol-5-yl)benzo[d]isoxazol-3-amine]: the IC50 was 50 to 1000 nM. In turn, `N[C@H](CNc1ncc(-c2ccc3[nH]c(=O)oc3c2)s1)Cc1c[nH]c2ccccc12` [Example 39, 6-(2-((S)-2-amino-3-(1H-indol-3-yl)propylamino)thiazol-5-yl)benzo[d]oxazol-2(3H)-one] displayed an IC50 of 50 to 1000 nM. The figure for `N[C@H](CNc1ncc(-c2ccc3[nH]c(=O)oc3c2)s1)Cc1ccc(C(F)(F)F)cc1` [Example 40, 6-(2-((S)-2-amino-3-(4-(trifluoromethyl)phenyl)propylamino)thiazol-5-yl)benzo[d]oxazol-2(3H)-one] is less than 50 nM; for `N[C@H](CNc1ncc(-c2ccc3c(c2)C(F)(F)C(=O)N3)s1)Cc1ccc(C(F)(F)F)cc1` [Example 41, 5-(2-((S)-2-amino-3-(4-(trifluoromethyl)phenyl)propylamino)thiazol-5-yl)-3,3-difluoroindolin-2-one] it is 50 to 1000 nM. `N[C@H](CNc1ncc(-c2ccc3c(c2)CC(=O)N3)s1)Cc1ccc(C(F)(F)F)cc1` [Example 42, 5-(2-((S)-2-amino-3-(4-(trifluoromethyl)phenyl)propylamino)thiazol-5-yl)indolin-2-one] showed an IC50 of less than 50 nM. The same measure for `N[C@H](CNc1ncc(-c2ccc3[nH]c(=O)sc3c2)s1)Cc1ccc(C(F)(F)F)cc1` [Example 43, 6-(2-((S)-2-amino-3-(4-(trifluoromethyl)phenyl)propylamino)thiazol-5-yl)benzo[d]thiazol-2(3H)-one]: less than 50 nM.

On to `N[C@H](CNc1ncc(-c2ccc3c(c2)CC(=O)N3)s1)Cc1cccc(C(F)(F)F)c1` [Example 44, 5-(2-((S)-2-amino-3-(3-(trifluoromethyl)phenyl)propylamino)thiazol-5-yl)indolin-2-one], for which the IC50 lay in the range of 50 to 1000 nM. The figure for `CNc1n[nH]c2ccc(-c3cnc(NC[C@@H](N)Cc4c[nH]c5ccccc45)s3)cc12` [Example 45, 5-(2-((S)-2-amino-3-(1H-indol-3-yl)propylamino)thiazol-5-yl)-N-methyl-1H-indazol-3-amine] is 1000 to 10000 nM. `N[C@H](CNc1ncc(-c2ccc3[nH]c(=O)oc3c2)s1)Cc1cccc(C(F)(F)F)c1` [Example 46, 6-(2-((S)-2-amino-3-(3-(trifluoromethyl)phenyl)propylamino)thiazol-5-yl)benzo[d]oxazol-2(3H)-one] registered an IC50 of 50 to 1000 nM.

With `CC1C(=O)Nc2ccc(-c3cnc(NC[C@@H](N)Cc4ccc(C(F)(F)F)cc4)s3)cc21` (stereo partly drawn) [Example 47, 5-(2-((S)-2-amino-3-(4-(trifluoromethyl)phenyl)propylamino)thiazol-5-yl)-3-methylindolin-2-one], the IC50 lay within 50 to 1000 nM. The figure for `N[C@H](CNc1ncc(-c2ccc3cn[nH]c3c2)s1)Cc1ccc(C(F)(F)F)cc1` [Example 48, N—((S)-2-amino-3-(4-(trifluoromethyl)phenyl)propyl)-5-(1H-indazol-6-yl)thiazol-2-amine] is 50 to 1000 nM; for `NC(=O)c1ccc(-c2cnc(NC[C@@H](N)Cc3ccc(C(F)(F)F)cc3)s2)cc1` [Example 49, (S)-4-(2-(2-amino-3-(4-(trifluoromethyl)phenyl)propylamino)thiazol-5-yl)benzamide] it is 1000 to 10000 nM; for `Nc1n[nH]c2ccc(-c3cnc(NC[C@@H](N)Cc4ccc(C(F)(F)F)cc4)s3)cc12` [Example 50, 5-(2-((S)-2-amino-3-(4-(trifluoromethyl)phenyl)propylamino)thiazol-5-yl)-1H-indazol-3-amine] it is 50 to 1000 nM. The figure for `Nc1noc2ccc(-c3cnc(NC[C@@H](N)Cc4ccc(C(F)(F)F)cc4)s3)cc12` [Example 51, 5-(2-((S)-2-amino-3-(4-(trifluoromethyl)phenyl)propylamino)thiazol-5-yl)benzo[d]isoxazol-3-amine] is 50 to 1000 nM; for `Nc1n[nH]c2cc(-c3cnc(NC[C@@H](N)Cc4ccc(C(F)(F)F)cc4)s3)ccc12` [Example 52, 6-(2-((S)-2-amino-3-(4-(trifluoromethyl)phenyl)propylamino)thiazol-5-yl)-1H-indazol-3-amine] it is 1000 to 10000 nM; for `Cn1nc(N)c2ccc(-c3cnc(NC[C@@H](N)Cc4ccc(C(F)(F)F)cc4)s3)cc21` [Example 53, 6-(2-((S)-2-amino-3-(4-(trifluoromethyl)phenyl)propylamino)thiazol-5-yl)-1-methyl-1H-indazol-3-amine] it is 1000 to 10000 nM.

Molecule `N[C@H](CNc1ncc(-c2ccc3c(c2)CC(=O)N3)s1)Cc1ccc(Cl)cc1` [Example 54, 5-(2-((S)-2-Amino-3-(4-chlorophenyl)propylamino)thiazol-5-yl)indolin-2-one] returned an IC50 of less than 50 nM. For `N[C@H](CNc1ncc(-c2ccc3[nH]c(=O)oc3c2)s1)Cc1ccc(Cl)cc1` [Example 55, 6-(2-((S)-2-Amino-3-(4-chlorophenyl)propylamino)thiazol-5-yl)benzo[d]oxazol-2(3H)-one], the IC50 is less than 50 nM. `CNCc1nc(NC[C@@H](N)Cc2ccc(C(F)(F)F)cc2)sc1-c1ccc2cnccc2c1` [Example 56, N—((S)-2-amino-3-(4-(trifluoromethyl)phenyl)propyl)-5-(isoquinolin-6-yl)-4-((methylamino)methyl)thiazol-2-amine] registered a half-maximal inhibitory concentration (IC50) of 50 to 1000 nM. The same measure for `Cn1c(=O)[nH]c2ccc(-c3cnc(NC[C@@H](N)Cc4ccc(C(F)(F)F)cc4)s3)cc21` [Example 57, 6-(2-((S)-2-amino-3-(4-(trifluoromethyl)phenyl)propylamino)thiazol-5-yl)-1-methyl-1H-benzo[d]imidazol-2(3H)-one]: less than 50 nM. In turn, `COCc1nc(NC[C@@H](N)Cc2ccc(C(F)(F)F)cc2)sc1-c1ccc2[nH]c(=O)n(C)c2c1` [Example 58, 6-(2-((S)-2-amino-3-(4-(trifluoromethyl)phenyl)propylamino)-4-(methoxymethyl)thiazol-5-yl)-1-methyl-1H-benzo[d]imidazol-2(3H)-one] returned an IC50 of 50 to 1000 nM. The same measure for `COCc1nc(NC[C@@H](N)Cc2ccc(C(F)(F)F)cc2)sc1-c1ccc2[nH]c(=O)oc2c1` [Example 59, 6-(2-((S)-2-amino-3-(4-(trifluoromethyl)phenyl)propylamino)-4-(methoxymethyl)thiazol-5-yl)benzo[d]oxazol-2(3H)-one]: less than 50 nM; for `N[C@H](CNc1nc(-c2ccccn2)c(-c2nc3ccncc3s2)s1)Cc1ccc(C(F)(F)F)cc1` [Example 60, N—((S)-2-amino-3-(4-(trifluoromethyl)phenyl)propyl)-4-(pyridin-2-yl)-5-(thiazolo[5,4-c]pyridin-2-yl)thiazol-2-amine]: 1000 to 10000 nM.

Molecule `N#Cc1nc(NC[C@@H](N)Cc2ccc(C(F)(F)F)cc2)sc1-c1ccc2c(c1)CC(=O)N2` [Example 61, 2-((S)-2-amino-3-(4-(trifluoromethyl)phenyl)propylamino)-5-(2-oxoindolin-5-yl)thiazole-4-carbonitrile] had an IC50 of 1000 to 10000 nM.

`Cn1c(=O)[nH]c2ccc(-c3sc(NC[C@@H](N)Cc4ccc(C(F)(F)F)cc4)nc3C#N)cc21` [Example 62, 2-((S)-2-amino-3-(4-(trifluoromethyl)phenyl)propylamino)-5-(3-methyl-2-oxo-2,3-dihydro-1H-benzo[d]imidazol-5-yl)thiazole-4-carbonitrile] showed an IC50 of 1000 to 10000 nM. As for `N#Cc1nc(NC[C@@H](N)Cc2ccc(C(F)(F)F)cc2)sc1-c1ccc2cnccc2c1` [Example 63, 2-((S)-2-amino-3-(4-(trifluoromethyl)phenyl)propylamino)-5-(isoquinolin-6-yl)thiazole-4-carbonitrile], the IC50 fell in the range of 1000 to 10000 nM.

Take `N[C@H](CNc1ncc(-c2ccc3cnncc3c2)s1)Cc1ccc(C(F)(F)F)cc1` [Example 64, N—((S)-2-amino-3-(4-(trifluoromethyl)phenyl)propyl)-5-(phthalazin-6-yl)thiazol-2-amine]: the 50% inhibitory concentration (IC50) lay in the range of 50 to 1000 nM. The same measure for `N[C@H](CNc1ncc(-c2ccc3c(O)nncc3c2)s1)Cc1ccc(C(F)(F)F)cc1` [Example 65, 6-(2-((S)-2-amino-3-(4-(trifluoromethyl)phenyl)propylamino)thiazol-5-yl)phthalazin-1-ol]: 50 to 1000 nM; for `N[C@H](CNc1ncc(-c2ccc3cnccc3c2)s1)Cc1cccc(Cl)c1` [Example 66, N—((S)-2-amino-3-(3-chlorophenyl)propyl)-5-(isoquinolin-6-yl)thiazol-2-amine]: less than 50 nM.

Usually IC50 stands for the concentration at which inhibition is half-maximal. Low values mean greater potency in that assay, high ones weaker potency in that assay.
